Tests used:
[1] = target: T1, CgA-AF633 (Homo sapiens, UniProt P10645); assay: Interaction of CgA-AF633 protein with giant liposomes containing GPL (confocal microscopy); assay type: binding; conditions: CgA-AF633 4 μM, liposomes 96% DOPC / 4% GPL, FIG. 5
T1 sequence (P10645 19-457): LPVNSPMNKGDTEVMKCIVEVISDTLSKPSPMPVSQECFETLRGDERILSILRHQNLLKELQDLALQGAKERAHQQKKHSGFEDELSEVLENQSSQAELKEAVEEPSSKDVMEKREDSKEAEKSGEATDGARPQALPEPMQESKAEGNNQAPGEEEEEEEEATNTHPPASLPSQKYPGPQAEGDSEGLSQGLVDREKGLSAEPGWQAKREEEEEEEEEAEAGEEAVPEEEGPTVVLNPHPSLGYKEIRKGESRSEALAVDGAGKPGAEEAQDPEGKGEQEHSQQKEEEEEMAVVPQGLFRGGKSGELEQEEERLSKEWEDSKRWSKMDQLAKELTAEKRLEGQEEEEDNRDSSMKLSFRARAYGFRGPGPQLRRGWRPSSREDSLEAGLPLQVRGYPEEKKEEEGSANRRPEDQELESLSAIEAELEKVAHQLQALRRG
Description: This example illustrates the interaction between GPL (XIVa), which fluoresces green (by means of a nitrobenzadiazole-based fluorophore), and a red-fluorescent phosphatidic acid (PA) mobilizing protein, CgA-AF633.
(§1) For this purpose, giant liposomes composed of 96% by mass of dioleoylphosphatidylcholine (DOPC) and 4% by mass of GPL (XIVa), and, for comparative purposes, giant liposomes composed of 96% by mass of dioleoylphosphatidylcholine (DOPC) and 4% by mass of a natural GPL modified with a nitrobenzadiazole-based fluorophore: PA 18:1-6:0 NBD sold under the reference 810175C by Avanti Polar Lipids, at a concentration of 1 mM, are prepared using the polyvinyl alcohol (PVA)-assisted swelling method as described in Carmon et al., FASEB J., 2020, 34:6769-6790).
CgA, rendered red-fluorescent due to its coupling with the fluorophore Alexa 633 or AF633 (CgA-AF633), is incubated at 4 μM concentration with liposomes as prepared above. […]

[2] = Formation of giant liposomes (96% DOPC / 4% GPL) by PVA-assisted swelling, light and confocal microscopy; assay type: physicochemical; conditions: liposomes 96% by mass DOPC and 4% by mass GPL, 1 mM, FIG. 3 and 4
Description: as §1

[3] = target: T2, Spo20p-GFP (Saccharomyces cerevisiae, UniProt Q04359); assay: Recruitment of Spo20p-GFP to the plasma membrane of PC12 cells after incubation with GPL (confocal microscopy); assay type: cell-based; conditions: GPL 100 μM, 5 min incubation, PC12 cells expressing Spo20p-GFP, FIG. 1
T2 construct: expressed in transfected cells; host or cells: PC12 cells
T2 sequence (Q04359 51-91 limits assumed): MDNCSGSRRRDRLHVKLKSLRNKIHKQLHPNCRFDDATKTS
Description: This example illustrates the interaction between GPL (Ia) or (Ib) and a phosphatidic acid (PA) mobilizing protein, the green-fluorescent protein Spo20p-GFP, expressed in target cells.
For this purpose, GPL (Ia) and, for comparative purposes, a natural GPL PA 18:1-18:0 (referred to hereinbelow as GPL C1) sold under reference 840861C by Avanti Polar Lipids, are incubated for 5 min at a concentration of 100 μM, with PC12 cells expressing Spo20p-GFP.
Similarly, GPL (Ib) and, for comparative purposes, a natural GPL PA 18:2-18:0 (referred to hereinbelow as GPL C2) sold under reference 840862C by Avanti Polar Lipids, are incubated for 5 min at a concentration of 100 μM, with PC12 cells expressing Spo20p-GFP.
The GPL-free cell medium is used as a control (referred to hereinbelow as […]).
A marker referred to hereinbelow as Membright (obtained from Mayeul Collot UMR-7021, Strasbourg) is incubated for 5 minutes on cells in media as prepared above to specifically mark the cells' plasma membrane.

SMILES | interaction of the CgA-AF633 protein with liposomes containing the GPL [1] | membrane deformations in the liposomes on incubation with CgA-AF633 [1] | participation in the formation of giant liposomes [2] | recruitment of the Spo20p-GFP protein to the plasma membrane [3]
CCCCCCCC/C=C\CCCCCCCC(=O)O[C@@H](COP(=O)(O)O)[C@H](Cn1nnc2c1-c1ccccc1CN(C(=O)CCCCCNc1ccc([N+](=O)[O-])c3nonc13)c1ccccc1-2)OC(=O)CCCCCCCCCCCCCCCCC [GPL (XIVa), (2S,3S)-4-(8-(6-((7-nitrobenzo[c][1,2,5]oxadiazol-4-yl)amino)hexanoyl)-8,9-dihydro-1H-dibenzo[b,f][1,2,3]triazolo[4,5-d]azocin-1-yl)-1-(phosphonooxy)-3-(stearoyloxy)butan-2-yl oleate] | only interacts with liposomes containing GPL (XIVa) | does result in membrane deformations | participates in the formation of giant liposomes | 
CCCCCCCC/C=C\CCCCCCCC(=O)O[C@@H](COP(=O)(O)O)[C@H](CN=[N+]=[N-])OC(=O)CCCCCCCCCCCCCCCCC [GPL (Ia), (2S,3S)-4-azido-2-(oleoyloxy)-3-(stearoyloxy)butyl hydrogen phosphate] |  |  |  | bring about recruitment of the Spo20p-GFP protein to the plasma membrane of PC12 cells in the same manner as do the corresponding natural GPLs

— US20250215028A1, “SYNTHETIC GLYCEROPHOSPHOLIPIDS COMPRISING AT LEAST ONE REACTIVE FUNCTION, PROCESS FOR PREPARING SAME AND USES THEREOF IN DIFFERENT APPLICATIONS” (UNIVERSITE DE ROUEN-NORMANDIE, priority 2022, published 2025)
